Values joined by “and” are separate entries in the source; they are usually repeats but may differ in a detail not shown here. Identical values can stand only once. Toxic doses and inconclusive results are not listed.
Tested on: P388 leukemia ip, CD2F1 mice, survival T/C
Experiment: NCI In Vivo Anticancer Drug Screen. Data for tumor model P388 Leukemia (intraperitoneal) in CD2F1 (CDF1) mice
Conditions: endpoint: median survival time, higher = longer survival
Procedure, shortened: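 Mice carrying the transplanted tumor received test compound or vehicle. Survival was recorded in each group, and the value is the treated-group measurement divided by that of the vehicle-treated control group.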

[1] = dose: 50.0 mg/kg/injection, schedule: Q01DX009 (ip), vehicle: saline with Tween-80
[2] = dose: 100.0 mg/kg/injection, schedule: Q01DX009 (ip), vehicle: saline with Tween-80
[3] = dose: 200.0 mg/kg/injection, schedule: Q01DX009 (ip), vehicle: saline with Tween-80
[4] = dose: 50.0 mg/kg/injection, schedule: Q01DX005 (ip), vehicle: saline with Tween-80
[5] = dose: 100.0 mg/kg/injection, schedule: Q01DX005 (ip), vehicle: saline with Tween-80
[6] = dose: 200.0 mg/kg/injection, schedule: Q01DX005 (ip), vehicle: saline with Tween-80
[7] = dose: 50.0 mg/kg/injection, schedule: Q01DX009 (ip), vehicle: Klucel (hydroxypropylcellulose) (HPC)
[8] = dose: 100.0 mg/kg/injection, schedule: Q01DX009 (ip), vehicle: Klucel (hydroxypropylcellulose) (HPC)
[9] = dose: 25.0 mg/kg/injection, schedule: Q01DX009 (ip), vehicle: Klucel (hydroxypropylcellulose) (HPC)
[10] = dose: 12.5 mg/kg/injection, schedule: Q01DX009 (ip), vehicle: Klucel (hydroxypropylcellulose) (HPC)

O=C(Nc1ccc(C2=NCCCN2)cc1)c1ccc(NC(=O)c2ccc(C3=NCCCN3)cc2)cc1
T/C (dose: 5.0 mg/kg/injection, schedule: Q01DX009 (ip), vehicle: saline): 200 % of control
T/C (dose: 10.0 mg/kg/injection, schedule: Q01DX009 (ip), vehicle: saline): 250 % of control
T/C (dose: 12.5 mg/kg/injection, schedule: Q04DX003 (ip), vehicle: saline): 160 % of control
T/C (dose: 20.0 mg/kg/injection, schedule: Q04DX003 (ip), vehicle: saline with Tween-80): 186 % of control
T/C (dose: 375.0 micrograms/kg/injection, schedule: Q04DX003 (ip), vehicle: saline): 109 % of control
T/C (dose: 750.0 micrograms/kg/injection, schedule: Q04DX003 (ip), vehicle: saline): 100 % of control
T/C (dose: 1500.0 micrograms/kg/injection, schedule: Q04DX003 (ip), vehicle: saline): 109 % of control

CC(=O)Nc1c(Cl)c(Cl)c2c(c1Cl)C(=O)c1cc(Cl)ccc1-2
T/C (dose: 25.0 mg/kg/injection, schedule: Q01DX009 (ip), vehicle: saline with Tween-80): 90 % of control
T/C [1]: 90 % of control
T/C [2]: 90 % of control

O=C(O)Cn1cc(I)c(=O)c(I)c1
T/C [1]: 102 % of control
T/C [2]: 112 % of control
T/C (dose: 100.0 mg/kg/injection, schedule: Q01DX009 (ip), vehicle: saline): 101 % of control
T/C [3]: 110 % of control
T/C (dose: 200.0 mg/kg/injection, schedule: Q01DX009 (ip), vehicle: saline): 105 % of control
T/C (dose: 400.0 mg/kg/injection, schedule: Q01DX009 (ip), vehicle: saline with Tween-80): 112 % of control
T/C (dose: 400.0 mg/kg/injection, schedule: Q01DX009 (ip), vehicle: saline): 102 % of control
T/C (dose: 600.0 mg/kg/injection, schedule: Q01DX009 (ip), vehicle: saline): 101 % of control

Cc1c([N+](=O)[O-])c(=O)oc2c1ccc1occc(=O)c12
T/C [4]: 96 % of control
T/C [5]: 89 % of control
T/C [6]: 90 % of control

O=C(NC(=S)Nc1ccsc1)c1ccccc1
T/C [1]: 90 % of control
T/C [2]: 88 % of control

COC(=O)C1=[N+]([O-])c2ccccc2C1C(O)C(=O)OC (configuration not stated)
T/C (dose: 60.0 mg/kg/injection, schedule: Q01DX005 (ip), vehicle: saline with Tween-80): 98 % of control
T/C (dose: 120.0 mg/kg/injection, schedule: Q01DX005 (ip), vehicle: saline with Tween-80): 93 % of control
T/C (dose: 240.0 mg/kg/injection, schedule: Q01DX005 (ip), vehicle: saline with Tween-80): 98 % of control

CCc1nc(N)nc(N)c1-c1ccc(N)cc1
T/C (dose: 12.5 mg/kg/injection, schedule: Q01DX005 (ip), vehicle: saline with Tween-80): 104 % of control
T/C (dose: 25.0 mg/kg/injection, schedule: Q01DX005 (ip), vehicle: saline with Tween-80): 100 % of control
T/C [4]: 98 % of control and 99 % of control

c1cnc2c(c1)Oc1nc3ccccc3nc1S2
T/C [4]: 99 % of control
T/C [5]: 98 % of control
T/C [6]: 96 % of control

C=C(C)C(=O)OC1CC2OC2(C)CC(OC(=O)C(=C)C)C2C(=C)C(=O)OC2/C=C\1C (configuration not stated)
T/C (dose: 5.0 mg/kg/injection, schedule: Q01DX009 (ip), vehicle: saline with Tween-80): 90 % of control
T/C (dose: 10.0 mg/kg/injection, schedule: Q01DX009 (ip), vehicle: saline with Tween-80): 90 % of control
T/C (dose: 20.0 mg/kg/injection, schedule: Q01DX009 (ip), vehicle: saline with Tween-80): 100 % of control
T/C (dose: 40.0 mg/kg/injection, schedule: Q01DX009 (ip), vehicle: saline with Tween-80): 86 % of control

O=C(O)C(=O)O.[Co].[NH-]CCC[NH-].[NH-]CCC[NH-]
T/C (dose: 25.0 mg/kg/injection, schedule: Q04DX002 (ip), vehicle: saline): 98 % of control

COc1ccc(C(Nc2ccccn2)c2cc(C(C)(C)C)cc(C(C)(C)C)c2O)cc1 (configuration not stated)
T/C (dose: 50.0 mg/kg/injection, schedule: Q01DX005 (ip), vehicle: distilled water + alcohol): 105 % of control
T/C (dose: 100.0 mg/kg/injection, schedule: Q01DX005 (ip), vehicle: distilled water + alcohol): 100 % of control
T/C (dose: 200.0 mg/kg/injection, schedule: Q01DX005 (ip), vehicle: distilled water + alcohol): 109 % of control

Cc1cc(C2(c3cc(C)c(O)c(C)c3)CC3CCC2C3)cc(C)c1O (configuration not stated)
T/C [7]: 88 % of control
T/C [8]: 97 % of control
T/C (dose: 200.0 mg/kg/injection, schedule: Q01DX009 (ip), vehicle: Klucel (hydroxypropylcellulose) (HPC)): 93 % of control

CCCC12C=C(OC)C(=O)C=C1OC(c1ccc3c(c1)OCO3)C2C (configuration not stated)
T/C (dose: 8.75 mg/kg/injection, schedule: Q01DX005 (ip), vehicle: Klucel (hydroxypropylcellulose) (HPC)): 106 % of control
T/C (dose: 17.5 mg/kg/injection, schedule: Q01DX005 (ip), vehicle: Klucel (hydroxypropylcellulose) (HPC)): 104 % of control
T/C (dose: 35.0 mg/kg/injection, schedule: Q01DX005 (ip), vehicle: Klucel (hydroxypropylcellulose) (HPC)): 104 % of control

Nc1nnc(-c2cccc(-c3nnc(N)o3)c2)o1
T/C (dose: 60.0 mg/kg/injection, schedule: Q01DX005 (ip), vehicle: saline): 98 % of control
T/C (dose: 120.0 mg/kg/injection, schedule: Q01DX005 (ip), vehicle: saline): 99 % of control
T/C (dose: 240.0 mg/kg/injection, schedule: Q01DX005 (ip), vehicle: saline): 102 % of control

O=c1[nH]c2c(c(O)c1-c1ccccc1)CCCN2
T/C (dose: 100.0 mg/kg/injection, schedule: Q04DX003 (ip), vehicle: Klucel (hydroxypropylcellulose) (HPC)): 102 % of control
T/C (dose: 200.0 mg/kg/injection, schedule: Q04DX003 (ip), vehicle: Klucel (hydroxypropylcellulose) (HPC)): 100 % of control
T/C (dose: 400.0 mg/kg/injection, schedule: Q04DX003 (ip), vehicle: Klucel (hydroxypropylcellulose) (HPC)): 110 % of control

C[N+]1=C(c2ccc(Br)cc2)OCC1(C)C
T/C (dose: 25.0 mg/kg/injection, schedule: Q01DX009 (ip), vehicle: other): 104 % of control
T/C (dose: 50.0 mg/kg/injection, schedule: Q01DX009 (ip), vehicle: other): 101 % of control
T/C (dose: 100.0 mg/kg/injection, schedule: Q01DX009 (ip), vehicle: other): 97 % of control
T/C (dose: 200.0 mg/kg/injection, schedule: Q01DX009 (ip), vehicle: other): 101 % of control
T/C (dose: 400.0 mg/kg/injection, schedule: Q01DX009 (ip), vehicle: other): 101 % of control

CCC/C(C)=C(/C#N)CC
T/C [9]: 101 % of control
T/C [7]: 101 % of control
T/C [8]: 101 % of control

CNC(=O)OCc1nn(-c2ccc(OC)cc2)c(C)c1COC(=O)NC
T/C (dose: 12.5 mg/kg/injection, schedule: Q01DX009 (ip), vehicle: distilled water + Tween-80): 92 % of control
T/C (dose: 25.0 mg/kg/injection, schedule: Q01DX009 (ip), vehicle: distilled water + Tween-80): 90 % of control
T/C (dose: 50.0 mg/kg/injection, schedule: Q01DX009 (ip), vehicle: distilled water + Tween-80): 90 % of control
T/C (dose: 100.0 mg/kg/injection, schedule: Q01DX009 (ip), vehicle: distilled water + Tween-80): 90 % of control
T/C (dose: 200.0 mg/kg/injection, schedule: Q01DX009 (ip), vehicle: distilled water + Tween-80): 87 % of control

Cc1cnc(C)n2ncnc12
T/C (dose: 100.0 mg/kg/injection, schedule: Q04DX003 (ip), vehicle: saline): 93 % of control
T/C (dose: 200.0 mg/kg/injection, schedule: Q04DX003 (ip), vehicle: saline): 95 % of control
T/C (dose: 400.0 mg/kg/injection, schedule: Q04DX003 (ip), vehicle: saline): 88 % of control

O=C(OC1(c2nccc3ccccc23)CCNCC1)c1ccccc1
T/C (dose: 12.5 mg/kg/injection, schedule: Q01DX005 (ip), vehicle: Klucel (hydroxypropylcellulose) (HPC)): 111 % of control
T/C (dose: 25.0 mg/kg/injection, schedule: Q01DX005 (ip), vehicle: Klucel (hydroxypropylcellulose) (HPC)): 109 % of control
T/C (dose: 50.0 mg/kg/injection, schedule: Q01DX005 (ip), vehicle: Klucel (hydroxypropylcellulose) (HPC)): 103 % of control and 104 % of control

Fc1ccc(NC(=S)SCc2ccc(Cl)c(Cl)c2)cc1F
T/C [10]: 124 % of control
T/C [8]: 116 % of control and 96 % of control

CCSC(=S)S(=O)(=O)c1ccc(C)cc1
T/C [10]: 120 % of control
T/C [9]: 105 % of control
T/C [7]: 115 % of control and 123 % of control

CN1C(=O)C(Cc2cnc[nH]2)NC1=S (configuration not stated)
T/C (dose: 60.0 mg/kg/injection, schedule: Q01DX005 (ip), vehicle: Klucel (hydroxypropylcellulose) (HPC)): 101 % of control
T/C (dose: 120.0 mg/kg/injection, schedule: Q01DX005 (ip), vehicle: Klucel (hydroxypropylcellulose) (HPC)): 111 % of control
T/C (dose: 240.0 mg/kg/injection, schedule: Q01DX005 (ip), vehicle: Klucel (hydroxypropylcellulose) (HPC)): 93 % of control

CC(C)(C)N(O)c1ccc(P(=O)(c2ccccc2)c2ccccc2)cc1
T/C [1]: 99 % of control
T/C [2]: 99 % of control
T/C [3]: 99 % of control
